Laboratory results reported in patent US11883387B2, “PqsR inverse agonists” (HELMHOLTZ-ZENTRUM FÜR INFEKTIONSFORSCHUNG GMBH, priority 2018, dated 2024).

Biological target: PqsR (Pseudomonas aeruginosa, UniProt Q9I4X0)
Experiment: E. coli based β-galactosidase reporter gene assay (PqsR inverse agonistic activity)
Assay type: cell-based
Design: expressed in transfected cells; host or cells: Escherichia coli DH5α
Procedure: Inhibition of pqsR-dependent gene expression of test compounds was determined in an E. coli based β-galactosidase reporter gene assay.[19] Escherichia coli DH5α was transfected with pEAL08-2 plasmid encoding pqsR under control of promoter tac and β-galactosidase reporter gene lacZ under control of promoter pqsA. Antagonistic effects of compounds were evaluated in the presence of/in competition to 50 nM PQS. A positive control was used to ensure the reliability of individual assays. First, PQS was diluted in methanol and added to the wells of a glass coated 96-deep-well plate, and the solvent was evaporated. Then, compounds were added in 5 μL DMSO to final concentrations of 0.001-10 μM. Overnight cultures of E. coli DH5a×pEAL08-2 were diluted 1:100 in LB medium with ampicillin (50 μg/ml) and incubated at 37° C. with shaking until it reached an OD600 of 0.2. Finally, 995 μL of culture was added to each well and the p-galactosidase activity was determined by ortho-nitrophenyl-p-galactoside conversion in permeabilized cells after a 2.5 h incubation period (37° C., 180 rpm). OD600, OD420, and OD550 were measured using POLARstar Omega (BMG Labtech, Ortenberg, Germany), and the activity was expressed as ratio of the slope of β-galactosidase activity between basal control (no PQS) and solvent control. IC50 values of antagonists were determined by variation of the concentration of the test compounds.

Chain of PqsR (Q9I4X0 whole entry): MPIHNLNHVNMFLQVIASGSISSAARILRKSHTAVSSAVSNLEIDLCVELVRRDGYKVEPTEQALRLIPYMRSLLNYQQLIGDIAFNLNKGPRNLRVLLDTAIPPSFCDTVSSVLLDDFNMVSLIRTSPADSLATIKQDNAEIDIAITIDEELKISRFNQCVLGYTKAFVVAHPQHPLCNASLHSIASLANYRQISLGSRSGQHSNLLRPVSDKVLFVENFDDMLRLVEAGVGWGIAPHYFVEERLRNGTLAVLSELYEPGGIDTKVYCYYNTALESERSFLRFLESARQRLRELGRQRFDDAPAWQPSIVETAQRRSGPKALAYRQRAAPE

Row | SMILES | IC50 [nM]
1 | FC(F)(F)c1cc(NCc2cn(-c3cccc(CN4CCOCC4)c3)nn2)ccn1 [Compound 002, N-((1-(3-(Morpholinomethyl)phenyl)-1H-1,2,3-triazol-4-yl)methyl)-2-(trifluoromethyl)pyridin-4-amine] | 251 to 1000
2 | FC(F)(F)c1cc(NCc2cn(-c3cccc(Cl)c3)nn2)ccn1 [Compound 003, N-((1-(3-Chlorophenyl)-1H-1,2,3-triazol-4-yl)methyl)-2-(trifluoromethyl)pyridin-4-amine] | 51 to 250
3 | FC(F)(F)c1cc(NCc2cn(-c3ccc(Cl)cc3)nn2)ccn1 [Compound 008, N-((1-(4-chlorophenyl)-1H-1,2,3-triazol-4-yl)methyl)-2-(trifluoromethyl)pyridin-4-amine] | 51 to 250
4 | Fc1cccc(-n2cc(CNc3ccnc(C(F)(F)F)c3)nn2)c1 [Compound 009, N-((1-(3-Fluorophenyl)-1H-1,2,3-triazol-4-yl)methyl)-2-(trifluoromethyl)pyridin-4-amine] | 251 to 1000
5 | Fc1ccc(-n2cc(CNc3ccnc(C(F)(F)F)c3)nn2)cc1 [Compound 010, N-((1-(4-Fluorophenyl)-1H-1,2,3-triazol-4-yl)methyl)-2-(trifluoromethyl)pyridin-4-amine] | 51 to 250
6 | FC(F)(F)Oc1cccc(-n2cc(CNc3ccnc(C(F)(F)F)c3)nn2)c1 [Compound 011, N-((1-(3-(Trifluoromethoxy)phenyl)-1H-1,2,3-triazol-4-yl)methyl)-2-(trifluoromethyl)pyridin-4-amine] | 51 to 250
7 | N#Cc1ccc(-n2cc(CNc3ccnc(C(F)(F)F)c3)nn2)cc1 [Compound 013, 4-(4-(((2-(trifluoromethyl)pyridin-4-yl)amino)methyl)-1H-1,2,3-triazol-1-yl)benzonitrile] | 251 to 1000
8 | FC(F)(F)c1ccc(-n2cc(CNc3ccnc(C(F)(F)F)c3)nn2)cc1 [Compound 014, 2-(Trifluoromethyl)-N-((1-(4-(trifluoromethyl)phenyl)-1H-1,2,3-triazol-4-yl)methyl)pyridin-4-amine] | 51 to 250
9 | CSc1cccc(-n2cc(CNc3ccnc(C(F)(F)F)c3)nn2)c1 [Compound 015, N-((1-(3-(Methylthio)phenyl)-1H-1,2,3-triazol-4-yl)methyl)-2-(trifluoromethyl)pyridin-4-amine] | 51 to 250
10 | FC(F)(F)c1cc(NCc2cn(-c3ccc(CN4CCOCC4)cc3)nn2)ccn1 [Compound 019, N-((1-(4-(Morpholinomethyl)phenyl)-1H-1,2,3-triazol-4-yl)methyl)-2-(trifluoromethyl)pyridin-4-amine] | 251 to 1000
11 | Fc1ccc(-n2cc(CNc3ccnc(C(F)(F)F)c3)nn2)cc1F [Compound 020, N-((1-(3,4-Difluorophenyl)-1H-1,2,3-triazol-4-yl)methyl)-2-(trifluoromethyl)pyridin-4-amine] | 51 to 250
12 | COc1cc(-n2cc(CNc3ccnc(C(F)(F)F)c3)nn2)ccc1Br [Compound 023, N-((1-(4-Bromo-3-methoxyphenyl)-1H-1,2,3-triazol-4-yl)methyl)-2-(trifluoromethyl)pyridin-4-amine] | 251 to 1000
13 | Fc1cc(Br)ccc1-n1cc(CNc2ccnc(C(F)(F)F)c2)nn1 [Compound 024, N-((1-(4-Bromo-2-fluorophenyl)-1H-1,2,3-triazol-4-yl)methyl)-2-(trifluoromethyl)pyridin-4-amine] | 51 to 250
14 | Fc1ccc(-n2cc(CNc3ccnc(C(F)(F)F)c3)nn2)cc1Cl [Compound 027, N-((1-(3-Chloro-4-fluorophenyl)-1H-1,2,3-triazol-4-yl)methyl)-2-(trifluoromethyl)pyridin-4-amine] | 251 to 1000
15 | CN(c1ccccc1)c1ccc(-n2cc(CNc3ccnc(C(F)(F)F)c3)nn2)cc1 [Compound 029, N-((1-(4-(Methyl(phenyl)amino)phenyl)-1H-1,2,3-triazol-4-yl)methyl)-2-(trifluoromethyl)pyridin-4-amine] | 51 to 250
16 | FC(F)(F)c1cc(NCc2cn(-c3ccc(Oc4ccccn4)c(Cl)c3)nn2)ccn1 [Compound 034, N-((1-(3-Chloro-4-(pyridin-2-yloxy)phenyl)-1H-1,2,3-triazol-4-yl)methyl)-2-(trifluoromethyl)pyridin-4-amine] | ≤ 50
17 | FC(F)(F)c1cc(SCc2cn(-c3ccc(Cl)cc3)nn2)ccn1 [Compound 055, 4-(((1-(4-chlorophenyl)-1H-1,2,3-triazol-4-yl)methyl)thio)-2-(trifluoromethyl)pyridine] | 251 to 1000
18 | FC(F)(F)c1cc(SCc2cn(-c3ccc(Br)cc3)nn2)ccn1 [Compound 058, 4-(((1-(4-Bromophenyl)-1H-1,2,3-triazol-4-yl)methyl)thio)-2-(trifluoromethyl)pyridine] | 51 to 250

Row | SMILES | IC50 [nM]
19 | FC(F)(F)c1cc(SCc2cn(-c3ccc(Cl)c(Cl)c3)nn2)ccn1 [Compound 059, 4-(((1-(3,4-Dichlorophenyl)-1H-1,2,3-triazol-4-yl)methyl)thio)-2-(trifluoromethyl)pyridine] | 51 to 250
20 | FC(F)(F)c1nccc(SCc2cn(-c3ccc(Cl)cc3)nn2)n1 [Compound 060, 4-(((1-(4-chlorophenyl)-1H-1,2,3-triazol-4-yl)methyl)thio)-2-(trifluoromethyl)pyrimidine] | 251 to 1000
21 | COc1ccc(-n2cc(CSc3ccnc(C(F)(F)F)c3)nn2)cc1 [Compound 062, 4-(((1-(4-methoxyphenyl)-1H-1,2,3-triazol-4-yl)methyl)thio)-2-(trifluoromethyl)pyridine] | 251 to 1000
22 | Fc1cc(-n2cc(CSc3ccnc(C(F)(F)F)c3)nn2)ccc1OC(F)(F)F [Compound 064, 4-(((1-(3-fluoro-4-(trifluoromethoxy)phenyl)-1H-1,2,3-triazol-4-yl)methyl)thio)-2-(trifluoromethyl)pyridine] | 51 to 250
23 | FC(F)(F)c1cc(SCc2cnc(-c3ccc(Cl)cc3)s2)ccn1 [Compound 067, 2-(4-Chlorophenyl)-5-(((2-(trifluoromethyl)pyridin-4-yl)thio)methyl) thiazole] | 251 to 1000
24 | COc1c(C)cc(-c2ncc(CNc3ccnc(C(F)(F)F)c3)s2)cc1C [Compound 075, N-((2-(4-Methoxy-3,5-dimethylphenyl)thiazol-5-yl)methyl)-2-(trifluoromethyl)pyridin-4-amine] | 251 to 1000
25 | N#Cc1ccc(-c2nc(CNc3ccnc(C(F)(F)F)c3)cs2)cc1 [Compound 085, 4-(4-(((2-(Trifluoromethyl)pyridin-4-yl)amino)methyl)thiazol-2-yl)benzonitrile] | 251 to 1000
26 | COc1ccc(-c2nc(CNc3ccnc(C(F)(F)F)c3)cs2)cc1 [Compound 086, N-((2-(4-Methoxyphenyl)thiazol-4-yl)methyl)-2-(trifluoromethyl)pyridin-4-amine] | 251 to 1000
27 | FC(F)(F)c1cc(NCc2csc(-c3cccc(Oc4ccccc4)c3)n2)ccn1 [Compound 089, N-((2-(3-Phenoxyphenyl)thiazol-4-yl)methyl)-2-(trifluoromethyl)pyridin-4-amine] | 51 to 250
28 | O=C(c1cccc(-c2nc(CNc3ccnc(C(F)(F)F)c3)cs2)c1)C1CC1 [Compound 090, Cyclopropyl(3-(4-(((2-(trifluoromethyl)pyridin-4-yl)amino)methyl)thiazol-2-yl)phenyl)methanone] | 251 to 1000
29 | FC(F)(F)c1cc(NCc2ncc(-c3ccc(Cl)nc3)cn2)ccn1 [Compound 099, N-((5-(6-Chloropyridin-3-yl)pyrimidin-2-yl)methyl)-2-(trifluoromethyl)pyridin-4-amine] | 251 to 1000
30 | FC(F)(F)c1cc(SCc2ccc(-c3ccc(Oc4ccccc4)cc3)cn2)ccn1 [Compound 109, 4-(((5-(4-phenoxyphenyl)pyridin-2-yl)methyl)thio)-2-(trifluoromethyl)pyridine] | 251 to 1000
31 | FC(F)(F)c1cc(SCc2ccc(-c3ccc(Cl)nc3)cc2)ccn1 [Compound 110, 4-((4-(6-Chloropyridin-3-yl)benzyl)thio)-2-(trifluoromethyl)pyridine] | 251 to 1000
32 | FC(F)(F)c1cc(SCc2ccc(-c3cnc(Cl)nc3)cn2)ccn1 [Compound 113, 2-Chloro-5-(6-(((2-(trifluoromethyl)pyridin-4-yl)thio)methyl)pyridin-3-yl)pyrimidine] | 251 to 1000
33 | COc1ncc(-c2ccc(CSc3ccnc(C(F)(F)F)c3)nc2)cc1Cl [Compound 115, 5-Chloro-6-methoxy-6′-(((2-(trifluoromethyl)pyridin-4-yl)thio)methyl)-3,3′-bipyridine] | 251 to 1000
34 | FC(F)(F)c1cc(SCc2nc3cc(Cl)ccc3[nH]2)ccn1 [Compound 123, 5-Chloro-2-(((2-(trifluoromethyl)pyridin-4-yl)thio)methyl)-1H-benzo[d]imidazole] | 251 to 1000
35 | FC(F)(F)c1nc(Cl)cc(SCc2nc3cc(Oc4ccccc4)ccc3[nH]2)n1 [Compound 124, 2-(((6-Chloro-2-(trifluoromethyl)pyrimidin-4-yl)thio)methyl)-5-phenoxy-1H-benzo[d]imidazole] | 251 to 1000
36 | COc1cc(SCc2nc3cc(Oc4ccccc4)ccc3[nH]2)nc(C(F)(F)F)n1 [Compound 126, 2-(((6-Methoxy-2-(trifluoromethyl)pyrimidin-4-yl)thio)methyl)-5-phenoxy-1H-benzo[d]imidazole] | 251 to 1000
